Laboratory results from patent US9023814B2, “Glycomimetic compounds as anti-infectious against pathogens lectins” (priority 2010, dated 2015).

How the values were obtained:
[1] = target: T1, LecA (Pseudomonas aeruginosa, UniProt Q05097); test: Enzyme-Linked Lectin Assay (ELLA), biotinylated LecA binding to polymeric galactose
Description: Enzyme-Linked Lectin Assay (ELLA) Experiments 96-well plates are covered with polymer presenting galactose (which is the monosaccharide that is bound by LecA). The lectin labelled with biotin is added in presence of competing glycomimetics. IC50 can be measured.
More particularly, ELLA experiments were conducted using 96-well microtitre plates (Nunc Maxisorb) coated with polymeric β-D-galactose (5 μg/mL; Lectinity Holding, Inc., Moscow) diluted in carbonate buffer, pH 9.6 (100 μL) for 1 h at 37° C. After blocking at 37° C. for 1 h with 100 μL per well of 3% (w/v) BSA in PBS, plates were incubated at 37° C. for 1 h with 100 μL of biotinylated LecA at 0.1 μg/mL in the presence of serial dilutions of inhibitors. After washing with T-PBS (PBS containing 0.05% Tween), 100 μL of streptavidinperoxidase conjugate (dilution 1:10000; Boehringer-Mannheim) was added and left for 1 h at 37° C. The color was developed using 100 μL per well of 0.05 M phosphate/citrate buffer containing O-phenylenediamine dihydrochloride (0.4 mg/mL) and urea hydrogen peroxide (0.4 mg/mL) (Sigma-Aldrich). The reaction was stopped by the addition of 50 μL of 30% H2SO4. Absorbance was read at 490 nm using a microtitre plate reader (Bio-Rad; model 680).

[2] = target: T1, LecA; test: biochemical; type: binding
Description: Surface Plasmon Resonance (SPR).
Equivalent method, but performed in miniaturized channel on a galactose-containing chips in a more sophisticated apparatus (Biacore 3000) that allows for a precise determination of the IC50.
More particularly, SPR inhibition experiments were performed on a Biacore 3000 instrument at 25° C. Measurements were carried out on 2 channels with 2 immobilised sugars: α-L-fucose (channel 1), α-D-galactose (channel 2). Immobilization of sugars was performed at 25° C. using running buffer (HBS) at 5 μL/min. Immobilization on each channel (CM5 Chip) was performed independently as follows. First, channel was activated by injecting a fresh mixture of EDC/NHS (35 μL, 420 s). Then, a solution of strepatavidin (100 μg/mL in Na acetate pH 5 buffer) was injected (50 μL, 600 s). Remaining reactive species were quenched by injecting ethanolamine (1M, 35 μL, 420 s). Finally a solution of the desired biotinylated-polyacrylamide-sugar (Lectinity, 200 μg/mL) was coated onto the surface (50 μL, 600 s) through streptavidin-biotin interaction. This procedure led to 804 RU (fucoside) and 796 RU (galactoside) of immobilized sugars on channel 1 and 2 respectively. Inhibition experiments were performed with the galactosylated channel 2 and plots represent subtracted data (channel 2-channel 1).
LecA was injected using running buffer consisting of HEPES 10 mM, NaCl 150 mM, CaCl2 10 mM, Tween P20 0.005%, pH 7.4. Inhibition studies consisted in the injection (150 μL, 10 μL/min, dissociation: 120 s) of incubated (>1 h, r.t.) mixtures of LecA (5 μM) and various concentrations of inhibitor (2-fold cascade dilutions). For each inhibition assay, LecA (5 μM) without inhibitor was injected to observe the full adhesion of the lectin onto the sugar-coated surface (0% inhibition). The CM5 chip was fully regenerated by successive injections of D-Galactose (2×30 μL, 100 mM in running buffer).
Binding was measured as RU over time after blank subtraction, and data were then evaluated using the BIAevaluation Software, version 4.1. For IC50 evaluation, the response (Req-fitted) was considered as the amount of lectin bound to the sugar surface at equilibrium in the presence of a defined concentration of inhibitor. Inhibition curves were obtained by plotting the percentage of inhibition against the inhibitor concentration (on a logarithmic scale) by using Origin 7.0 software (OriginLab Corp.) and IC50 values were extracted from sigmoidal fit of the inhibition curve.

[3] = target: T1, LecA; test: Inhibition of Hemagglutination (HIA), LecA-induced agglutination of rabbit erythrocytes; type: cell-based; conditions: LecA 6 μg/mL, 25° C.
Description: Inhibition of Hemagglutination (IHA) (or Hemagglutination Inhibition Assays (HIA)).
The LecA lectin agglutinates red blood cells since they are covered by glycoconjugates. The glycomimetics inhibit this agglutination.
For each compound the minimum concentration able to perform inhibition has been evaluated. The method is not very quantitative but mimics natural system.
More particularly, hemagglutination inhibition assays were performed in U-shaped 96-well microtitre plates. Rabbit erythrocytes were bought from Biomerieux and used without further washing. The erythrocytes were diluted to a 4% solution in NaCl (150 mM). Lectin solutions of 2 mg/mL were prepared in Tris/HCl 20 mM, NaCl 100 mM and CaCl2 100 μM. The hemagglutination unit (HU) was first obtained by the addition of 25 μL of the 4% erythrocyte solution to 25 μL aliquots of sequential (two-fold) lectin dilutions. The mixture was incubated at 25° C. for 60 minutes. The HU was measured as the minimum lectin concentration required to […] hemagglutination. For the following lectin-inhibition assays, lectin concentrations of four times that of the hemagglutination unit were used, i.e. a concentration of 6 μg/mL for LecA. Subsequent assays were then carried out by the addition of 12.5 μL lectin solution (at the required concentration) to 25 μL of sequential dilutions of glycoclusters, monomer molecules and controls. These solutions were then incubated at 25° C. for 2 h then 12.5 μL of 4% erythrocyte solution was added followed by an additional incubation at 25° C. for 30 minutes. The minimum inhibitory concentration for each molecule was determined by simple eye detection.
Compounds 5, 10, 14, 19, 21, 23, 25, 27, 29 and 31 were evaluated towards LecA according to Method 1.

[4] = target: T1, LecA; test: biochemical; type: binding; remark: listed apart in the source
Description: Isothermal Titration Microcalorimetry (ITC).
The method allows for a direct measurement of the affinity between the glycomimetics and the LecA lectin. The dissociation constant is measured.
More particularly, recombinant lyophilized LecA was dissolved in buffer (0.1 M TrisHCl, 6 μM CaCl2, pH 7.5) and degassed (see Supp. Info. for concentration details). Protein concentration was checked by measurement of optical density using a theoretical molar extinction coefficient of 28000. Carbohydrate ligands were dissolved directly into the same buffer, degassed, and placed in the injection syringe. ITC was performed with a VP-ITC MicroCalorimeter from MicroCal Incorporated. PA-IL was placed into the 1.4478-mL sample cell, at 25° C. Titration was performed with 10-μL injections of carbohydrate ligands every 300 s. Data were fitted with MicroCal Origin 7 software, according to standard procedures. Fitted data yielded the stoichiometry (n), the association constant (Ka) and the enthalpy of binding (ΔH).
Other thermodynamic parameters (i.e. changes in free energy, ΔG, and entropy, ΔS) were calculated from the equation: ΔG=ΔH TΔS=−RT Inka where T is the absolute temperature and R=8.314 J·mol^−1·K^−1. Two or three independent titrations were performed for each ligand tested.

[5] = tested on: P. aeruginosa; test: Mice model of lung infection, alveolar capillary barrier permeability (125I-albumin); type: in vivo; conditions: co-instillation into lungs with P. aeruginosa, 6 h after infection
Description: Mice were briefly anesthetized with inhaled sevoflurane. For each mouse, 50 l of a bacterial inoculum of 5×10^8 CFU/ml was instilled into the lungs through a gavage inserted into trachea via the oropharynx. The alveolar capillary barrier permeability was evaluated by measuring residual ^125I-albumin instilled intratracheally as an alveolar protein tracer in the lungs and its leakage and accumulation in the plasma aftert 6 h after infection. The intratracheal instillate was a mixture of 1 μCi of ^125I-labeled albumin and 5% bovine albumin together with the P. aeruginosa inoculate and different monosaccharides or glycocompounds. The total radioactivity in the instillate was measured. Fifty microliters of instillate was inoculated into the lungs of each anesthetized mouse. […] The blood was collected by carotid arterial puncture, and a sternotomy was performed to harvest and measure the radioactivity in the lungs, trachea, and stomach. The quantity of 125l-albumin that leaked into the circulation was calculated by multiplying the activity in a blood sample by the volume of blood.
Compound 14 has been compared with two monosaccharides: glucose and galactose, in animal models assays. […] For this, labelled albumin was […] was estimated. […]

T1 sequence (Q05097 whole entry): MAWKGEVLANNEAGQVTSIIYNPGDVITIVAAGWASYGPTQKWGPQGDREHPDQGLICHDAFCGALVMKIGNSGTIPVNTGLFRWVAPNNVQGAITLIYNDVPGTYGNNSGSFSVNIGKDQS

Compound: O=C(Cn1cc(CO)nn1)Nc1ccc(O[C@@H]2O[C@H](CO)[C@H](O)[C@H](O)[C@H]2O)cc1 [Comp. 14, 4-[(1,2,3-Triazol-4-hydroxymethyl-1-yl)-acetamido]phenyl β-D-galactopyranoside]
- IC50 [1]: 46 µM
- IC50 [2]: 2.6 µM
- inhibiting concentrations of lectin-induced red cells agglutination (minimum inhibitory concentration) [3]: 250 µM
- Kd [4]: 5.8 µM
- reduction of lung damages (alveolar barrier permeability) versus bacteria without sugar [5]: approximately 50%
